Values joined by “and” are separate entries in the source; they are usually repeats but may differ in a detail not shown here. Equal entries are not always repeated.
Test system: 349418-098-R tumor spheroid viability
Assay: Anticancer human tumor 349418-098-R patient-derived lung adenocarcinoma cell line growth inhibition
Details: spheroids with HUVEC and MSC; for viability, T/C: stronger effect = lower value
How it was run: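 Complex spheroids of malignant cells with endothelial cells and mesenchymal stem cells; agents alone or combined, from near clinical Cmax (or 10 microM if unknown) down in half-log steps, 0.25% DMSO final.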

[1] = curve of first compound, second compound 30 pM
[2] = curve of first compound, second compound 94.9 pM
[3] = curve of first compound, second compound 0.0003 µM
[4] = curve of first compound, second compound 0.000949 µM
[5] = curve of first compound, second compound 0.003 µM
[6] = second compound 30 pM, first compound 0.0316 µM
[7] = second compound 30 pM, first compound 0.1 µM
[8] = second compound 30 pM, first compound 0.316 µM
[9] = second compound 30 pM, first compound 1 µM
[10] = second compound 30 pM, first compound 3.16 µM
[11] = second compound 30 pM, first compound 10 µM
[12] = second compound 94.9 pM, first compound 0.0316 µM
[13] = second compound 94.9 pM, first compound 0.1 µM
[14] = second compound 94.9 pM, first compound 0.316 µM
[15] = second compound 94.9 pM, first compound 1 µM
[16] = second compound 94.9 pM, first compound 3.16 µM
[17] = second compound 94.9 pM, first compound 10 µM
[18] = second compound 0.0003 µM, first compound 0.0316 µM
[19] = second compound 0.0003 µM, first compound 0.1 µM
[20] = second compound 0.0003 µM, first compound 0.316 µM
[21] = second compound 0.0003 µM, first compound 1 µM
[22] = second compound 0.0003 µM, first compound 3.16 µM
[23] = second compound 0.0003 µM, first compound 10 µM
[24] = second compound 0.000949 µM, first compound 0.0316 µM
[25] = second compound 0.000949 µM, first compound 0.1 µM
[26] = second compound 0.000949 µM, first compound 0.316 µM
[27] = second compound 0.000949 µM, first compound 1 µM
[28] = second compound 0.000949 µM, first compound 3.16 µM
[29] = second compound 0.000949 µM, first compound 10 µM
[30] = second compound 0.003 µM, first compound 0.0316 µM
[31] = second compound 0.003 µM, first compound 0.1 µM
[32] = second compound 0.003 µM, first compound 0.316 µM
[33] = second compound 0.003 µM, first compound 1 µM
[34] = second compound 0.003 µM, first compound 3.16 µM
[35] = second compound 0.003 µM, first compound 10 µM
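Also: spheroids exposed to compound for 7 days before measurement.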
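For viability, T/C in this document: percent of vehicle control viability with 100% = DMSO-treated spheroids.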

[2H]c1nc(C)nc([2H])c1-c1cc(NC[C@@H](C)c2cccc3c(C(=O)NC)ccnc23)ncn1 + COc1cc2c(cc1O)CCNC21CSC2c3c(OC(C)=O)c(C)c4c(c3C(COC1=O)N1C(O)C3Cc5cc(C)c(OC)c(O)c5C(C21)N3C)OCO4
IC50 [1]: > 10000 nM
IC50 [2]: > 10000 nM
IC50 [3]: > 10000 nM
IC50 [4]: < 31.6 nM
IC50 [5]: < 31.6 nM
viability, T/C [6]: 110%
viability, T/C [7]: 98.4%
viability, T/C [8]: 111%
viability, T/C [9]: 107%
viability, T/C [10]: 98.2%
viability, T/C [11]: 105%
viability, T/C [12]: 99%
viability, T/C [13]: 99.5%
viability, T/C [14]: 94.2%
viability, T/C [15]: 107%
viability, T/C [16]: 103%
viability, T/C [17]: 98.7%
viability, T/C [18]: 96.1%
viability, T/C [19]: 93.7%
viability, T/C [20]: 92.7%
viability, T/C [21]: 93.6%
viability, T/C [22]: 88%
viability, T/C [23]: 86.2%
viability, T/C [24]: 0.58%
viability, T/C [25]: 0.76%
viability, T/C [26]: 0.46%
viability, T/C [27]: 0.58%
viability, T/C [28]: 0.39%
viability, T/C [29]: 0.49%
viability, T/C [30]: 1.52%
viability, T/C [31]: 1.57%
viability, T/C [32]: 1.35%
viability, T/C [33]: 1.29%
viability, T/C [34]: 1.6%
viability, T/C [35]: 2.34%

Cc1sc2c(c1C)C(c1ccc(Cl)cc1)=NC(CC(=O)Nc1ccc(O)cc1)c1nnc(C)n1-2 (centres undefined) + COc1cc2c(cc1O)CCNC21CSC2c3c(OC(C)=O)c(C)c4c(c3C(COC1=O)N1C(O)C3Cc5cc(C)c(OC)c(O)c5C(C21)N3C)OCO4
IC50 [1]: 142 nM
IC50 [2]: 104 nM
IC50 [3]: 39.2 nM
IC50 [4]: < 9.49 nM
IC50 [5]: < 9.49 nM
viability, T/C (second compound 30 pM, first compound 0.00949 µM): 97.4%
viability, T/C (second compound 30 pM, first compound 0.03 µM): 101%
viability, T/C (second compound 30 pM, first compound 0.0949 µM): 63.3%
viability, T/C (second compound 30 pM, first compound 0.3 µM): 22.3%
viability, T/C (second compound 30 pM, first compound 0.949 µM): 3.92%
viability, T/C (second compound 30 pM, first compound 3 µM): 0.75%
viability, T/C (second compound 94.9 pM, first compound 0.00949 µM): 99.1%
viability, T/C (second compound 94.9 pM, first compound 0.03 µM): 104%
viability, T/C (second compound 94.9 pM, first compound 0.0949 µM): 53.6%
viability, T/C (second compound 94.9 pM, first compound 0.3 µM): 7.33%
viability, T/C (second compound 94.9 pM, first compound 0.949 µM): 1.23%
viability, T/C (second compound 94.9 pM, first compound 3 µM): 0.57%
viability, T/C (second compound 0.0003 µM, first compound 0.00949 µM): 87.3%
viability, T/C (second compound 0.0003 µM, first compound 0.03 µM): 56%
viability, T/C (second compound 0.0003 µM, first compound 0.0949 µM): 28.3%
viability, T/C (second compound 0.0003 µM, first compound 0.3 µM): 4.02%
viability, T/C (second compound 0.0003 µM, first compound 0.949 µM): 0.43%
viability, T/C (second compound 0.0003 µM, first compound 3 µM): 0.38%
viability, T/C (second compound 0.000949 µM, first compound 0.00949 µM): 0.25%
viability, T/C (second compound 0.000949 µM, first compound 0.03 µM): 0.35%
viability, T/C (second compound 0.000949 µM, first compound 0.0949 µM): 0.19%
viability, T/C (second compound 0.000949 µM, first compound 0.3 µM): 0.18%
viability, T/C (second compound 0.000949 µM, first compound 0.949 µM): 0.18%
viability, T/C (second compound 0.000949 µM, first compound 3 µM): 0.57%
viability, T/C (second compound 0.003 µM, first compound 0.00949 µM): 1.49%
viability, T/C (second compound 0.003 µM, first compound 0.03 µM): 1.62%
viability, T/C (second compound 0.003 µM, first compound 0.0949 µM): 1.47%
viability, T/C (second compound 0.003 µM, first compound 0.3 µM): 1.59%
viability, T/C (second compound 0.003 µM, first compound 0.949 µM): 2.52%
viability, T/C (second compound 0.003 µM, first compound 3 µM): 3.49%

Cn1ncnc1[C@H]1c2n[nH]c(=O)c3cc(F)cc(c23)N[C@@H]1c1ccc(F)cc1
viability, T/C (compound 0.00949 µM): 98.5% and 97% and 84.1%
viability, T/C (compound 0.03 µM): 96.8% and 96.3% and 103%
viability, T/C (compound 0.0949 µM): 95.9% and 95.6% and 97.9%
viability, T/C (compound 0.3 µM): 92.7% and 92.3% and 93.1%
viability, T/C (compound 0.949 µM): 93.1% and 85% and 89.9%
viability, T/C (compound 3 µM): 9.44% and 11.2% and 10.9%
IC50 (curve of compound): 1720 nM and 1640 nM and 1700 nM

COc1cc(C)[nH]c(=O)c1CN1CCc2c(Cl)cc(C(OC)C3COC3)c(Cl)c2C1=O (centres undefined)
viability, T/C (compound 0.0316 µM): 113% and 98.1% and 118%
viability, T/C (compound 0.1 µM): 115% and 96.7% and 122%
viability, T/C (compound 0.316 µM): 108% and 91.9% and 112%
viability, T/C (compound 1 µM): 104% and 92% and 112%
viability, T/C (compound 3.16 µM): 101% and 79.7% and 118%
viability, T/C (compound 10 µM): 96.4% and 83.6% and 103%
IC50 (curve of compound): > 10000 nM

COc1cc(C)[nH]c(=O)c1CN1CCc2c(Cl)cc(C(OC)C3COC3)c(Cl)c2C1=O (centres undefined) + COc1cc2c(cc1O)CCNC21CSC2c3c(OC(C)=O)c(C)c4c(c3C(COC1=O)N1C(O)C3Cc5cc(C)c(OC)c(O)c5C(C21)N3C)OCO4
IC50 [1]: > 10000 nM
IC50 [2]: > 10000 nM
IC50 [3]: > 10000 nM
IC50 [4]: < 31.6 nM
IC50 [5]: < 31.6 nM
viability, T/C [6]: 112%
viability, T/C [7]: 106%
viability, T/C [8]: 96.1%
viability, T/C [9]: 97.2%
viability, T/C [10]: 94.2%
viability, T/C [11]: 93.3%
viability, T/C [12]: 112%
viability, T/C [13]: 111%
viability, T/C [14]: 102%
viability, T/C [15]: 99.2%
viability, T/C [16]: 90.8%
viability, T/C [17]: 95.8%
viability, T/C [18]: 95.4%
viability, T/C [19]: 85.8%
viability, T/C [20]: 84.3%
viability, T/C [21]: 79.9%
viability, T/C [22]: 64%
viability, T/C [23]: 53.1%
viability, T/C [24]: 0.28%
viability, T/C [25]: 0.39%
viability, T/C [26]: 0.45%
viability, T/C [27]: 0.46%
viability, T/C [28]: 0.29%
viability, T/C [29]: 0.33%
viability, T/C [30]: 1.45%
viability, T/C [31]: 1.46%
viability, T/C [32]: 1.03%
viability, T/C [33]: 1.48%
viability, T/C [34]: 1.6%
viability, T/C [35]: 2.3%
